# Experimental data from US20040167192A1, “Methods of treating conditions associated with an Edg-7 receptor” (priority 2003, published 2004).
# Columns and labels:
# human Edg 7 receptors = molecular target: T1, human Edg 7 receptors (Homo sapiens, UniProt Q9UBY5); assay: Intracellular calcium mobilization (FLIPR) in HTC cells expressing Edg-7; assay type: cell-based
# T1 construct: expressed in transfected cells; host or cells: HTC rat hepatoma cells
# T1 sequence (Q9UBY5 1-353): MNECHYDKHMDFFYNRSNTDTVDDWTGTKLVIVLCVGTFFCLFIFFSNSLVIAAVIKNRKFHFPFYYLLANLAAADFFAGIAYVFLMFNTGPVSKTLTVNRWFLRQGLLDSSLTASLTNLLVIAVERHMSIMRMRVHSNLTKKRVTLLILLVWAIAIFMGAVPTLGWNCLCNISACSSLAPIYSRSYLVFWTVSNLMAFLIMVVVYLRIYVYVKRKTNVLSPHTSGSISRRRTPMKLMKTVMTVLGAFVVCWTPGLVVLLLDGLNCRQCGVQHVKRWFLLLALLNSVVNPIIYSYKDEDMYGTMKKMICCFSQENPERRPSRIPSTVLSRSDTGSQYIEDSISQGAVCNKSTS
# Procedure: The compounds were tested in HTC cells expressing human Edg 7 receptors. […] The compounds are tested in this recombinant system first, and subsequently tested in cell lines expressing Edg-7 (in addition to other Edg receptors).
# The compounds were tested in HTC cells expressing human Edg 7 receptors. […] The compounds are tested in this recombinant system first, and subsequently tested in cell lines expressing Edg-7 (in addition to other Edg receptors). […] The calcium mobilization assays were conducted as described in Section 6.6 (Example 6).
# LPA receptors such as Edg-7, couple to calcium effector pathways, and result in increases in intracellular calcium following receptor activation (An, 1998, J. Cell. Biochem Supp. 30-31:147-157). This biological response lends itself to a very efficient, high-throughput screen using a Fluorescence Imaging Plate Reader (FLIPR; Molecular Devices, Sunnyvale, Calif.). The FLIPR system is a real-time, cell-based assay system with continuous fluorescence detection using a cooled CCD camera. The FLIPR system was used to developing an Edg-7 receptor screen. Rat hepatoma cells stably expressing Edg-7 receptor were plated on 384-well plates and loaded with a calcium dye loading kit (Molecular Devices, Sunnyvale, Calif.) for 1 hour at room temperature. Cells were then placed on the FLIPR^384 (Molecular Devices, Sunnyvale, Calif.) and excited by an argon laser at 488 nm. The data for the entire 384-well plate was updated every second. An integrated robotic pipettor allowed for simultaneous compound addition into each individual well in the plate.
# Edg-2 = molecular target: T2, Edg-2 (Homo sapiens, UniProt Q92633); assay: Intracellular calcium mobilization (FLIPR) in HTC cells expressing Edg-2; assay type: cell-based
# T2 construct: expressed in transfected cells; host or cells: HTC rat hepatoma cells
# T2 sequence (Q92633 whole entry): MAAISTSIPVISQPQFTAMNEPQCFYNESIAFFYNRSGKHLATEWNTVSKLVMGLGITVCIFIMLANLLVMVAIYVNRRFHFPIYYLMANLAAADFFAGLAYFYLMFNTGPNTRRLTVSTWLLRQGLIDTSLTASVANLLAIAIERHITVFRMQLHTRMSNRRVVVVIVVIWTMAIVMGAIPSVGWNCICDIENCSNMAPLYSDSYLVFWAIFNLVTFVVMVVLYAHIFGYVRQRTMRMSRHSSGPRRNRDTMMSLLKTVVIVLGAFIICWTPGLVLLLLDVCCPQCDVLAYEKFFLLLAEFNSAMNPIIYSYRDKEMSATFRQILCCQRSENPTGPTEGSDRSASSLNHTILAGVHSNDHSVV
# Edg-4 = molecular target: T3, Edg-4 (Homo sapiens, UniProt Q9HBW0); assay: Intracellular calcium mobilization (FLIPR) in HTC cells expressing Edg-4; assay type: cell-based
# T3 construct: expressed in transfected cells; host or cells: HTC rat hepatoma cells
# T3 sequence (Q9HBW0 whole entry): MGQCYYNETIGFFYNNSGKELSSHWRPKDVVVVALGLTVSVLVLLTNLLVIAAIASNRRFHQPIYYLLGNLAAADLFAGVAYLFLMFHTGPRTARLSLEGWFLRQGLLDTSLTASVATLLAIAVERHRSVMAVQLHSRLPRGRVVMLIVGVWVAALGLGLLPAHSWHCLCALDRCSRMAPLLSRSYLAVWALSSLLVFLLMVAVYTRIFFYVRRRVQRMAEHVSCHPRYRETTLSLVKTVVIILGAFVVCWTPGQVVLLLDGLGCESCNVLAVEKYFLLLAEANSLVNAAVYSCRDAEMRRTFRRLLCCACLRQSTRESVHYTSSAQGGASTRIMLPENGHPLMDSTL
# Edg-1 = molecular target: T4, Edg-1 (Homo sapiens, UniProt P21453); assay: Intracellular calcium mobilization (FLIPR) in HTC cells expressing Edg-1; assay type: cell-based
# T4 construct: expressed in transfected cells; host or cells: HTC rat hepatoma cells
# T4 sequence (P21453 whole entry): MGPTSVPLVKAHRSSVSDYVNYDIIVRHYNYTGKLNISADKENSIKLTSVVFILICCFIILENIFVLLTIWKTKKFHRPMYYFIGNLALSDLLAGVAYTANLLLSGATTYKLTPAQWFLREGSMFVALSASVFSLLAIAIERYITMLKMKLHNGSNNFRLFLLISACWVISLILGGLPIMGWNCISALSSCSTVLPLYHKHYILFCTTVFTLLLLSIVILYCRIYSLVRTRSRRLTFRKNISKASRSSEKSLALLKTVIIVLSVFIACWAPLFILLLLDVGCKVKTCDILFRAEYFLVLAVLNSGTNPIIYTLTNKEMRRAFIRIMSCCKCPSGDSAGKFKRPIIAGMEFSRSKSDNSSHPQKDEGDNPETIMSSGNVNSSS
# Edg-3 = molecular target: T5, Edg-3 (Homo sapiens, UniProt Q99500); assay: Intracellular calcium mobilization (FLIPR) in HTC cells expressing Edg-3; assay type: cell-based
# T5 construct: expressed in transfected cells; host or cells: HTC rat hepatoma cells
# T5 sequence (Q99500 whole entry): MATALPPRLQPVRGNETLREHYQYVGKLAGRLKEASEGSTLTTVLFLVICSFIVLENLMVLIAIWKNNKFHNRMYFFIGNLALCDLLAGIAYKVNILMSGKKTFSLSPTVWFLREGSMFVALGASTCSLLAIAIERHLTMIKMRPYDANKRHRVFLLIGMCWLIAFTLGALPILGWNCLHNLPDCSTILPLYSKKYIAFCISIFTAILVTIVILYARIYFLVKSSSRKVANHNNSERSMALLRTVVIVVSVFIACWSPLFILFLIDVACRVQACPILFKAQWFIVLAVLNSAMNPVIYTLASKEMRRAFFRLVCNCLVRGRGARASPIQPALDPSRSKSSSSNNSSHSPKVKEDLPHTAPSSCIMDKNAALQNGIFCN
# Edg-5 = molecular target: T6, Edg-5 (Homo sapiens, UniProt O95136); assay: Intracellular calcium mobilization (FLIPR) in HTC cells expressing Edg-5; assay type: cell-based
# T6 construct: expressed in transfected cells; host or cells: HTC rat hepatoma cells
# T6 sequence (O95136 whole entry): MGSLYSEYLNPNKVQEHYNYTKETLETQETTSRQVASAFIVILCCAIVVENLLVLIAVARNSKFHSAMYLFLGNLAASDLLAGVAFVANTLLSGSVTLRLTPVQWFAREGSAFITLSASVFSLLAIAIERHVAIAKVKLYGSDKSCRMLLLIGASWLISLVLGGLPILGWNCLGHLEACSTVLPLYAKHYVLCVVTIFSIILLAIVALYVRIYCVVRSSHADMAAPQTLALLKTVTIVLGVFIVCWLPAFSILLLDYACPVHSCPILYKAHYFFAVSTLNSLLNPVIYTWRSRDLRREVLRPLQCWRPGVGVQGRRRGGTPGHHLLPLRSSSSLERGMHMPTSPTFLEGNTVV
# Edg-6 = molecular target: T7, Edg-6 (Homo sapiens, UniProt O95977); assay: Intracellular calcium mobilization (FLIPR) in HTC cells expressing Edg-6; assay type: cell-based
# T7 construct: expressed in transfected cells; host or cells: HTC rat hepatoma cells
# T7 sequence (O95977 1-384): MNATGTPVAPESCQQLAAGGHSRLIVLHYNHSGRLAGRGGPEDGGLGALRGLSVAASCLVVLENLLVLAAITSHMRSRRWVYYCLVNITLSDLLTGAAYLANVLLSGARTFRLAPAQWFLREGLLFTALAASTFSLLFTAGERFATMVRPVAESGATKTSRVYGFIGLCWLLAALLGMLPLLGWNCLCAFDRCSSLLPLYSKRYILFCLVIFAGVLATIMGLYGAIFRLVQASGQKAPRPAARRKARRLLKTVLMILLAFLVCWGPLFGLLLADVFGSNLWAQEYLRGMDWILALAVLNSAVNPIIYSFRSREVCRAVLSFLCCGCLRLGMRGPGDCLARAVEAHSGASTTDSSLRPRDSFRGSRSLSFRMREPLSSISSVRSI
# Edg-8 = molecular target: T8, Edg-8 (Homo sapiens, UniProt Q9H228); assay: Intracellular calcium mobilization (FLIPR) in HTC cells expressing Edg-8; assay type: cell-based
# T8 construct: expressed in transfected cells; host or cells: HTC rat hepatoma cells
# T8 sequence (Q9H228 whole entry): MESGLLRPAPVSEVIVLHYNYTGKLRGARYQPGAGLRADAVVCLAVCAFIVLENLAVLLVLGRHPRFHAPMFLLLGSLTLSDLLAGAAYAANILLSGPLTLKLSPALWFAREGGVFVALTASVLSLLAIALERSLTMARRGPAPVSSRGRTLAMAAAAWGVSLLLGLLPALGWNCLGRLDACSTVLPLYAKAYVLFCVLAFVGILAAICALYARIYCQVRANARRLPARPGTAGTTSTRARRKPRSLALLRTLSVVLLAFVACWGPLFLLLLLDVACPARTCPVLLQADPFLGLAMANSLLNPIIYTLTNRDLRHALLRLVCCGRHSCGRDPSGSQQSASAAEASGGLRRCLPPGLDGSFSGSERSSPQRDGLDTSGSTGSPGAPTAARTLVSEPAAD
# untransfected HTC cells = assay: Intracellular calcium mobilization (FLIPR) in untransfected HTC cells; assay type: cell-based, rat; settings: concentrations as high as 25 μM
# [1] = HTC cells expressing human Edg 7 receptors
# [2] = concentrations as high as 25 μM
# [3] = concentrations as high as 20 μM
Compound,activation of the Edg-7 receptor (human Edg 7 receptors; [1]),stimulation of calcium increases (Edg-2; [2]),stimulation of calcium increases (Edg-4; [2]),stimulation of calcium increases (Edg-1; [2]),stimulation of calcium increases (Edg-3; [2]),stimulation of calcium increases (Edg-5; [2]),stimulation of calcium increases (Edg-6; [2]),stimulation of calcium increases (Edg-8; [2]),stimulation of calcium increases (untransfected HTC cells),melting point,inhibition of Edg-7 stimulated LPA responses (human Edg 7 receptors; [1]),selectivity for Edg 7 (human Edg 7 receptors; tested on HTC cells expressing Edg-7),inhibition of LPA-stimulated calcium increases (Edg-2; [3]),inhibition of LPA-stimulated calcium increases (Edg-4; [3]),inhibition of S1P-stimulated calcium increases (Edg-1; [3]),inhibition of S1P-stimulated calcium increases (Edg-3; [3]),inhibition of S1P-stimulated calcium increases (Edg-5; [3]),inhibition of S1P-stimulated calcium increases (Edg-6; [3]),inhibition of S1P-stimulated calcium increases (Edg-8; [3])
"CCCCCC(CCCCC)=N/N=C1\NC(=O)C(CC(=O)O)S1 (centres unmarked) [Compound 127, 4-Oxo-2-[(1-pentylhexylidene)hydrazono]thiazolidin-5-ylacetic acid]",specifically activate,did not stimulate calcium increases,did not stimulate calcium increases,did not stimulate calcium increases,did not stimulate calcium increases,did not stimulate calcium increases,did not stimulate calcium increases,did not stimulate calcium increases,did not stimulate calcium increases,134 to 135 °C,–,–,–,–,–,–,–,–,–
"O=C(O)COc1ccc(Br)cc1/C=C1\S/C(=N\c2ccc(Cl)cc2)NC1=O [Compound 107, 4-Bromo-2-[2-(4-chlorophenylamino)-4-oxothiazolidin-5-ylidenemethyl]phenoxyacetic acid]",–,–,–,–,–,–,–,–,–,–,demonstrate inhibition,–,–,–,–,–,–,–,–
"Cc1ccc(S(=O)(=O)N=C2NC(=O)/C(=C3/C(=O)Nc4ccccc43)S2)cc1 [Compound 105, 4-Methyl-N-[4-oxo-5-(2-oxo1,2-dihydroindol-3-ylidene)thiazolidin-2-ylidene]-benzenesulfonamide]",–,–,–,–,–,–,–,–,–,–,demonstrate inhibition,exhibited selectivity,did not inhibit,did not inhibit,did not inhibit,did not inhibit,did not inhibit,did not inhibit,did not inhibit
